The source of these data is patent US12606541B2, “PPARg modulators and methods of use” (Eisai R&D Management Co., Ltd., priority 2020, dated 2026).

Assay [1] deals with T1, His6-TEV-PPARγ-(234-505) (Homo sapiens, UniProt P37231).
T1 construct: The His6-TEV-PPARγ-(234-505) protein for assay was expressed and purified; TEV cleavage site (N); made in house
T1 sequence (P37231 234-505): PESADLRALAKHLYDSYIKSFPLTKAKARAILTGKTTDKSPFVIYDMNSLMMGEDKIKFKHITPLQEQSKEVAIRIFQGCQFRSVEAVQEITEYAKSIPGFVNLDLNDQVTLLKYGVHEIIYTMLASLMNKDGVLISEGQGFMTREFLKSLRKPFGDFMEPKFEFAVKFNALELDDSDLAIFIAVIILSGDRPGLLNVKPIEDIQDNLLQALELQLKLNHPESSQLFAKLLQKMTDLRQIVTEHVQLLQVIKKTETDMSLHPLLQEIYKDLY
The assay is described as follows: TR-FRET Assay to Measure Co-R Peptide Recruitment to PPARγ. The format is biochemical. The note with it: Co-R peptide (SMRT-ID2) recruitment; top final concentration 20 μM; read-out: TR-FRET i-Ag; AC50. A digest of the protocol:
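His-tagged PPARγ (or controls) was preincubated with compound for 20 minutes at room temperature, then 5 nM anti-His terbium antibody and 200 nM FITC-labeled SMRT-ID2 corepressor peptide (final) were added for a further hour. TR-FRET signal was normalized to percent response using 500 nM T0070907 and DMSO controls.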

Assay [2] relates to UM-UC-9 engineered cells. The assay is described as follows: Cell proliferation / short-term viability assay, CellTiter-Glo 144 h. The format is cell-based, human. The note with it: read-out: CTGlo 144 h UMUC9.5, G150. A digest of the protocol: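 UM-UC-9 engineered assay-ready cells seeded at 500 cells/well in high-glucose DMEM/10% FBS, treated from dose-response plates, grown at 37° C, 5% CO2. CellTiter-Glo 2.0 luminescence read on day 7, with a day-0 pretreatment plate as T0 reference and DMSO wells as negative control.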

Where two headings read alike, the source gives them in different places. A value given as a limit tells only on which side of the number the result lay.

On to `COc1cc(-c2cc(C(=O)N3[C@@H]4CC[C@H]3C[C@H](C(=O)NC3CCC(N)(C(F)(F)F)CC3)C4)n[nH]2)c(F)cn1` (stereo partly drawn) [Example 441, (1R,3s,5S)—N-(4-amino-4-(trifluoromethyl)cyclohexyl)-8-(5-(5-fluoro-2-methoxypyridin-4-yl)-1H-pyrazole-3-carbonyl)-8-azabicyclo[3.2.1]octane-3-carboxamide], for which, in assay [1], the AC50 was determined as 56.7 nM. For the same molecule, the IC50 in assay [2] (Homo sapiens, UM-UC-9, 144 h) was 350 nM.
The corresponding values for `COc1cc(-c2cc(C(=O)N3CCC(C(=O)NC4C(=O)N(C)Cc5ccccc54)CC3)n[nH]2)c(Cl)cn1` (racemic) [Example 240, 1-(5-(5-chloro-2-methoxypyridin-4-yl)-1H-pyrazole-3-carbonyl)-N-(2-methyl-3-oxo-1,2,3,4-tetrahydroisoquinolin-4-yl)piperidine-4-carboxamide] are 708 nM and 6050 nM.
On the same counts, the results for `COc1cc(-c2cc(C(=O)N3CCC(C(=O)NC4CCN(C)c5ccccc54)CC3)n[nH]2)c(Cl)cn1` (racemic) [Example 186, 1-(5-(5-chloro-2-methoxypyridin-4-yl)-1H-pyrazole-3-carbonyl)-N-(1-methyl-1,2,3,4-tetrahydroquinolin-4-yl)piperidine-4-carboxamide] are 202 nM and 339 nM.
On the same counts, the results for `COc1cc(-c2cc(C(=O)N3CC[C@H](C(=O)NCC45COC(CN)(C4)C5)CC34CC4)n[nH]2)c(F)cn1` [Example 499, (S)—N-((1-(aminomethyl)-2-oxabicyclo[2.1.1]hexan-4-yl)methyl)-4-(5-(5-fluoro-2-methoxypyridin-4-yl)-1H-pyrazole-3-carbonyl)-4-azaspiro[2.5]octane-7-carboxamide] are 294 nM and over 10000 nM.
In the case of `COc1cc(-c2cc(C(=O)N3CCC(C(=O)NCc4ccc5n[nH]nc5c4)CC3)n[nH]2)c(Cl)cn1` [Example 197, N-((2H-benzo[d][1,2,3]triazol-5-yl)methyl)-1-(5-(5-chloro-2-methoxypyridin-4-yl)-1H-pyrazole-3-carbonyl)piperidine-4-carboxamide], the AC50 in assay [1] came to 197 nM. In addition, the IC50 in assay [2] (Homo sapiens, UM-UC-9, 144 h) came to 3930 nM.
Consider `COc1cc(-c2cc(C(=O)N3[C@@H]4CC[C@H]3C[C@H](C(=O)NCc3ccc5[nH]c(C)c(C)c5c3)C4)n[nH]2)c(F)cn1` [Example 285, (1R,3R,5S)—N-[(2,3-dimethyl-1H-indol-5-yl)methyl]-8-[5-(5-fluoro-2-methoxypyridin-4-yl)-1H-pyrazole-3-carbonyl]-8-azabicyclo[3.2.1]octane-3-carboxamide], for which the AC50 in assay [1] came out at 7.9 nM. Also, the IC50 in assay [2] (Homo sapiens, UM-UC-9, 144 h) is 16.3 nM.
With `COc1cc(-c2cc(C(=O)N3CCC(C(=O)NC4CCOc5cc(F)cnc54)CC34CC4)n[nH]2)c(F)cn1` (mixture of isomers) [Example 383, (S)-4-(5-(5-fluoro-2-methoxypyridin-4-yl)-1H-pyrazole-3-carbonyl)-N—((R)-7-fluoro-3,4-dihydro-2H-pyrano[3,2-b]pyridin-4-yl)-4-azaspiro[2.5]octane-7-carboxamide and (S)-4-(5-(5-fluoro-2-methoxypyridin-4-yl)-1H-pyrazole-3-carbonyl)-N—((S)-7-fluoro-3,4-dihydro-2H-pyrano[3,2-b]pyridin-4-yl)-4-azaspiro[2.5]octane-7-carboxamide], the AC50 in assay [1] is 33.1 nM. For the same molecule, the IC50 in assay [2] is 43.1 nM.
For `COc1cc(-c2cc(C(=O)N3CCC(C(=O)NCc4cc(C(F)F)on4)CC3)n[nH]2)c(Cl)cn1` [Example 225, 1-(5-(5-chloro-2-methoxypyridin-4-yl)-1H-pyrazole-3-carbonyl)-N-((5-(difluoromethyl)isoxazol-3-yl)methyl)piperidine-4-carboxamide], in assay [1], the AC50 came to 327 nM. Moreover, the IC50 in assay [2] (Homo sapiens, UM-UC-9, 144 h) was determined as 1720 nM.
The corresponding values for `Cc1cc(-c2cc(C(=O)N3CCC(C(=O)NCc4cccc(Cl)c4)CC3)n[nH]2)c(F)cn1` [Example 267, N-[(3-chlorophenyl)methyl]-1-[5-(5-fluoro-2-methylpyridin-4-yl)-1H-pyrazole-3-carbonyl]piperidine-4-carboxamide] are 14.2 nM and 104 nM.
Consider “(S)-4-(5-(5-fluoro-2-methoxypyridin-4-yl)-1H-pyrazole-3-carbonyl)-N-((1s,4R)-4-(hydroxymethyl)-4-(trifluoromethyl)cyclohexyl)-4-azaspiro[2.5]octane-7-carboxamide and (S)-4-(5-(5-fluoro-2-methoxypyridin-4-yl)-1H-pyrazole-3-carbonyl)-N-((1r,4S)-4-(hydroxymethyl)-4-(trifluoromethyl)cyclohexyl)-4-azaspiro[2.5]octane-7-carboxamide [Example 408]”, for which the AC50 in assay [1] amounted to 6.3 nM. For the same molecule, the IC50 in assay [2] worked out at 7.2 nM.
For the molecule `COc1cc(-c2cc(C(=O)N3CCC(C(=O)NC4CC5COCC(C4)N5C)CC34CC4)n[nH]2)c(F)cn1` (stereo not drawn) [Example 419-A], the AC50 in assay [1] stood at 359 nM. Further, the IC50 in assay [2] (Homo sapiens, UM-UC-9, 144 h) amounted to 854 nM.
Consider `COc1cc(-c2cc(C(=O)N3CCC(C(=O)NCc4ccc5ncoc5c4)CC3)n[nH]2)c(Cl)cn1` [Example 152], for which the AC50 in assay [1] is 853 nM. In assay [2] (Homo sapiens, UM-UC-9, 144 h), the IC50 is 825 nM.
On the same counts, the results for `COc1cc(-c2cc(C(=O)N3CCC(C(=O)NCc4nn(C)c5ccccc45)CC3)n[nH]2)c(Cl)cn1` [Example 218, 1-(5-(5-chloro-2-methoxypyridin-4-yl)-1H-pyrazole-3-carbonyl)-N-((1-methyl-1H-indazol-3-yl)methyl)piperidine-4-carboxamide] are 13.8 nM and 138 nM.
Turning to `COc1cc(-c2cc(C(=O)N3CC[C@H](C(=O)NC4(C#N)CC4)CC34CC4)n[nH]2)c(F)cn1` [Example 448, (S)—N-(1-cyanocyclopropyl)-4-(5-(5-fluoro-2-methoxypyridin-4-yl)-1H-pyrazole-3-carbonyl)-4-azaspiro[2.5]octane-7-carboxamide], the AC50 in assay [1] is 123 nM. Further, in assay [2] (Homo sapiens, UM-UC-9, 144 h), the IC50 was determined as 1640 nM.
Turning to `COc1cc(-c2cc(C(=O)N3CC[C@H](C(=O)NC4CCN(C5COC56CNC6)C4)CC34CC4)n[nH]2)c(F)cn1` (single isomer, unassigned) [Example 461-C], in assay [1], the AC50 is 375 nM. Besides, the IC50 in assay [2] is over 10000 nM.
`COc1cc(-c2cc(C(=O)N3[C@@H]4CC[C@H]3C[C@H](C(=O)NCc3ncc(F)cc3Cl)C4)n[nH]2)c(F)cn1` [Example 384, (1R,3s,5S)—N-((3-chloro-5-fluoropyridin-2-yl)methyl)-8-(5-(5-fluoro-2-methoxypyridin-4-yl)-1H-pyrazole-3-carbonyl)-8-azabicyclo[3.2.1]octane-3-carboxamide]: the AC50 in assay [1] amounted to 15.2 nM. Further, the IC50 in assay [2] (Homo sapiens, UM-UC-9, 144 h) came to 82.1 nM.
With `COc1cc(-c2cc(C(=O)N3CCC(C(=O)NC4CCN(CC5(O)COC5)C4)CC34CC4)n[nH]2)c(F)cn1` (mixture of isomers) [Example 454, (S)-4-(5-(5-fluoro-2-methoxypyridin-4-yl)-1H-pyrazole-3-carbonyl)-N—((R)-1-((3-hydroxyoxetan-3-yl)methyl)pyrrolidin-3-yl)-4-azaspiro[2.5]octane-7-carboxamide and (S)-4-(5-(5-fluoro-2-methoxypyridin-4-yl)-1H-pyrazole-3-carbonyl)-N—((S)-1-((3-hydroxyoxetan-3-yl)methyl)pyrrolidin-3-yl)-4-azaspiro[2.5]octane-7-carboxamide], the AC50 in assay [1] is 196 nM. In addition, the IC50 in assay [2] is 999 nM.
On the same counts, the results for `COc1cc(-c2cc(C(=O)N3CC[C@H](C(=O)NC4CCC(C(F)(F)F)C(O)C4)CC34CC4)n[nH]2)c(F)cn1` (single isomer, unassigned) [Example 501-A] are 7.8 nM and 21.4 nM.
On to `COc1cc(-c2cc(C(=O)N3CCC(C(=O)NCC4CC(OC)C4)CC3)n[nH]2)c(Cl)cn1` (mixture of isomers) [Example 145, 1-(5-(5-chloro-2-methoxypyridin-4-yl)-1H-pyrazole-3-carbonyl)-N-((3-methoxycyclobutyl)methyl)piperidine-4-carboxamide], for which the AC50 in assay [1] stood at 688 nM. Moreover, the IC50 in assay [2] (Homo sapiens, UM-UC-9, 144 h) turned out to be 4120 nM.
On the same counts, the results for `COc1cc(-c2cc(C(=O)N3CCC(C(=O)NCc4ccc5[nH]c(C)cc5c4)CC3)n[nH]2)c(Cl)cn1` [Example 203, 1-(5-(5-chloro-2-methoxypyridin-4-yl)-1H-pyrazole-3-carbonyl)-N-((2-methyl-1H-indol-5-yl)methyl)piperidine-4-carboxamide] are 77.4 nM and 96.4 nM.
On the same counts, the results for `COc1cc(-c2cc(C(=O)N3CC[C@H](C(=O)Nc4cnn5ccc(Cl)nc45)CC34CC4)n[nH]2)c(F)cn1` [Example 430, (S)—N-(5-chloropyrazolo[1,5-a]pyrimidin-3-yl)-4-(5-(5-fluoro-2-methoxypyridin-4-yl)-1H-pyrazole-3-carbonyl)-4-azaspiro[2.5]octane-7-carboxamide] are 5 nM and 8.4 nM.
